The values that follow come from PMC10253321, “Effects of Phosphorylation on the Activity, Inhibition and Stability of Carbonic Anhydrases” (International Journal of Molecular Sciences, 2023).

The subject of one series is hCAII. Also noted: method as in PMID 12713833. The following applies: pH 7.8; cited from earlier work.
The next series has as its system hCAI. Also noted: method as in PMID 12713833. The following applies: pH 7.8; cited from earlier work.
Series [1] is described as follows: Esterase activity assay in whole-cell lysates. The format is biochemical, human. The settings on record: kcat/KM vs unmodified isoform.
Series [2] is described as follows: Differential scanning fluorimetry. The format is physicochemical, human. As for the experimental part: The diminished activity of hCAII^S29E and hCAI^S30E can be attributed to protein unfolding or misfolding upon introduction of a charged residue close to the hydrophobic side of the ligand-binding pocket. The phosphomimic hCAII^S29E was only expressed as a soluble protein when using ArcticExpress E. coli at 10 °C but not with T7 Express or C43 (DE3) E. coli. In ArticExpress cells, a cold-adapted chaperonin is co-expressed to assist folding at low temperatures. In addition, hCAI^S30E expresses at a very low yield in the soluble fraction even with the ArcticExpress system, and below detectable levels in T7 Express or C43 (DE3) E. coli. Moreover, an S > E mutation at Ser29 in another cytosolic carbonic anhydrase isoform (hCAIII) destabilizes the protein and decreases the melting temperature from 59 °C to 43 °C in differential scanning fluorimetry (Figure S5).
Background: Differential scanning fluorimetry follows unfolding on heating by fluorescence.

One may read the Km as the substrate concentration at which the rate is half of its maximum. In the case of `CC(=O)Oc1ccc([N+](=O)[O-])cc1` [pNPA, p-nitrophenyl acetate], the Km with hCAII was 2.92 mM; with hCAI, 15.4 mM.

For the molecule “hCAI S30E: human carbonic anhydrase I phosphomimic, Ser30 to Glu”, the “fold decrease in catalytic activity compared to the respective unmodified isoform” value in series [1] stood at 2.7 fold.

B1: hCAIII: cytosolic human carbonic anhydrase isoform III (protein, UniProt P07451 2-260, looked up)
Carbonic anhydrase 3: AKEWGYASHNGPDHWHELFPNAKGENQSPVELHTKDIRHDPSLQPWSVSYDGGSAKTILNNGKTCRVVFDDTYDRSMLRGGPLPGPYRLRQFHLHWGSSDDHGSEHTVDGVKYAAELHLVHWNPKYNTFKEALKQRDGIAVIGIFLKIGHENGEFQIFLDALDKIKTKGKEAPFTKFDPSCLFPACRDYWTYQGSFTTPPCEECIVWLLLKEPMTVSSDQMAKLRSLLSSAENEPPVPLVSNWRPPQPINNRVVRASFK
For B1, in series [2], the melting temperature stood at 59 °C.
